Assay results taken from ChEMBL document CHEMBL1201862, “PubChem BioAssay data set” (2004).
The source made the active and inactive calls.

Assays:
[1] = target: Dual specificity protein phosphatase 3 (Homo sapiens, UniProt P51452); test: VHR1 phosphatase inhibitors, primary screen, biochemical, absorbance, uHTS (AID 1654)
[2] = C. albicans growth with fluconazole, confirmation, fluorescence, retest (AID 2467); type: functional, cell-based
[3] = target: Proto-oncogene tyrosine-protein kinase ROS (Homo sapiens, UniProt P08922); type: functional;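 note: ROS1 tested as one member of a kinome-wide kinase panel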
[4] = target: Cell division cycle 7-related protein kinase (Homo sapiens, UniProt O00311); type: functional;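 note: value obtained from a kinome-wide kinase panel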
[5] = target: T1, Sentrin-specific protease 6 (Homo sapiens, UniProt Q9GZR1); type: functional;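 note: Luminescence-based dose-response confirmatory assay of SENP6 inhibition, following up an ultra-high-throughput screen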
T1 sequence (Q9GZR1 whole entry): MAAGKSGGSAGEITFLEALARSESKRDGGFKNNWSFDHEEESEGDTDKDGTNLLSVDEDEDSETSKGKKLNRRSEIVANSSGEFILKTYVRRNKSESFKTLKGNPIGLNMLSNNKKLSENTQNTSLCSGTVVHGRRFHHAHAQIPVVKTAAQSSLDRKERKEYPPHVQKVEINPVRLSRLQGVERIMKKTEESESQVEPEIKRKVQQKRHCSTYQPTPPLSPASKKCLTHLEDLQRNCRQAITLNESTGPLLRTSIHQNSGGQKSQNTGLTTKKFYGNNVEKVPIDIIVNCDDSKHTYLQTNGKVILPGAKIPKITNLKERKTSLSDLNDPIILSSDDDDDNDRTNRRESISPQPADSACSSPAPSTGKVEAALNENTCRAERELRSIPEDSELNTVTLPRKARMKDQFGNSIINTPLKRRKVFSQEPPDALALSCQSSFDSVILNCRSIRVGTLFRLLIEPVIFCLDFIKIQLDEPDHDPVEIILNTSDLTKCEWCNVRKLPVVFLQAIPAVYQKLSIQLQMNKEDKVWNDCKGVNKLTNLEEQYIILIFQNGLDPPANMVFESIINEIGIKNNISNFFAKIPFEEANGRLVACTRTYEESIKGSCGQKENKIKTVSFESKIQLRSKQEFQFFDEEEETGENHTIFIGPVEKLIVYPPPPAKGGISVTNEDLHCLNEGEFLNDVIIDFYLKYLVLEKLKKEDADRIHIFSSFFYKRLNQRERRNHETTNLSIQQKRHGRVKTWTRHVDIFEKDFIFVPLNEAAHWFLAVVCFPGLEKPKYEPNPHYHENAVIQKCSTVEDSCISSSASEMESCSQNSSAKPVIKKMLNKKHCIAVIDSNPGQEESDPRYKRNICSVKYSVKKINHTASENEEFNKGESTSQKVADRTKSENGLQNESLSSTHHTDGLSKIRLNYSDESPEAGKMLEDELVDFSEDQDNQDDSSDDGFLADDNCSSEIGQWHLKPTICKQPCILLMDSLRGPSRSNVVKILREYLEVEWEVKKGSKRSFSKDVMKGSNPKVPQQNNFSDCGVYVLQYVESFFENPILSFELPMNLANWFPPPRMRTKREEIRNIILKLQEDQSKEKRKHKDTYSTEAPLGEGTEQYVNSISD

Dual specificity protein phosphatase 3, sequence (P51452 whole entry): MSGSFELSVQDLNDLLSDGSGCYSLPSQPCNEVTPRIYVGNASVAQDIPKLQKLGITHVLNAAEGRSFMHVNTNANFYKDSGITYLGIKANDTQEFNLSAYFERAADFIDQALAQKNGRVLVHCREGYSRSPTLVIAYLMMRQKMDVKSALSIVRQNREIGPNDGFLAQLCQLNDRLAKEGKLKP
Proto-oncogene tyrosine-protein kinase ROS, sequence (P08922 whole entry): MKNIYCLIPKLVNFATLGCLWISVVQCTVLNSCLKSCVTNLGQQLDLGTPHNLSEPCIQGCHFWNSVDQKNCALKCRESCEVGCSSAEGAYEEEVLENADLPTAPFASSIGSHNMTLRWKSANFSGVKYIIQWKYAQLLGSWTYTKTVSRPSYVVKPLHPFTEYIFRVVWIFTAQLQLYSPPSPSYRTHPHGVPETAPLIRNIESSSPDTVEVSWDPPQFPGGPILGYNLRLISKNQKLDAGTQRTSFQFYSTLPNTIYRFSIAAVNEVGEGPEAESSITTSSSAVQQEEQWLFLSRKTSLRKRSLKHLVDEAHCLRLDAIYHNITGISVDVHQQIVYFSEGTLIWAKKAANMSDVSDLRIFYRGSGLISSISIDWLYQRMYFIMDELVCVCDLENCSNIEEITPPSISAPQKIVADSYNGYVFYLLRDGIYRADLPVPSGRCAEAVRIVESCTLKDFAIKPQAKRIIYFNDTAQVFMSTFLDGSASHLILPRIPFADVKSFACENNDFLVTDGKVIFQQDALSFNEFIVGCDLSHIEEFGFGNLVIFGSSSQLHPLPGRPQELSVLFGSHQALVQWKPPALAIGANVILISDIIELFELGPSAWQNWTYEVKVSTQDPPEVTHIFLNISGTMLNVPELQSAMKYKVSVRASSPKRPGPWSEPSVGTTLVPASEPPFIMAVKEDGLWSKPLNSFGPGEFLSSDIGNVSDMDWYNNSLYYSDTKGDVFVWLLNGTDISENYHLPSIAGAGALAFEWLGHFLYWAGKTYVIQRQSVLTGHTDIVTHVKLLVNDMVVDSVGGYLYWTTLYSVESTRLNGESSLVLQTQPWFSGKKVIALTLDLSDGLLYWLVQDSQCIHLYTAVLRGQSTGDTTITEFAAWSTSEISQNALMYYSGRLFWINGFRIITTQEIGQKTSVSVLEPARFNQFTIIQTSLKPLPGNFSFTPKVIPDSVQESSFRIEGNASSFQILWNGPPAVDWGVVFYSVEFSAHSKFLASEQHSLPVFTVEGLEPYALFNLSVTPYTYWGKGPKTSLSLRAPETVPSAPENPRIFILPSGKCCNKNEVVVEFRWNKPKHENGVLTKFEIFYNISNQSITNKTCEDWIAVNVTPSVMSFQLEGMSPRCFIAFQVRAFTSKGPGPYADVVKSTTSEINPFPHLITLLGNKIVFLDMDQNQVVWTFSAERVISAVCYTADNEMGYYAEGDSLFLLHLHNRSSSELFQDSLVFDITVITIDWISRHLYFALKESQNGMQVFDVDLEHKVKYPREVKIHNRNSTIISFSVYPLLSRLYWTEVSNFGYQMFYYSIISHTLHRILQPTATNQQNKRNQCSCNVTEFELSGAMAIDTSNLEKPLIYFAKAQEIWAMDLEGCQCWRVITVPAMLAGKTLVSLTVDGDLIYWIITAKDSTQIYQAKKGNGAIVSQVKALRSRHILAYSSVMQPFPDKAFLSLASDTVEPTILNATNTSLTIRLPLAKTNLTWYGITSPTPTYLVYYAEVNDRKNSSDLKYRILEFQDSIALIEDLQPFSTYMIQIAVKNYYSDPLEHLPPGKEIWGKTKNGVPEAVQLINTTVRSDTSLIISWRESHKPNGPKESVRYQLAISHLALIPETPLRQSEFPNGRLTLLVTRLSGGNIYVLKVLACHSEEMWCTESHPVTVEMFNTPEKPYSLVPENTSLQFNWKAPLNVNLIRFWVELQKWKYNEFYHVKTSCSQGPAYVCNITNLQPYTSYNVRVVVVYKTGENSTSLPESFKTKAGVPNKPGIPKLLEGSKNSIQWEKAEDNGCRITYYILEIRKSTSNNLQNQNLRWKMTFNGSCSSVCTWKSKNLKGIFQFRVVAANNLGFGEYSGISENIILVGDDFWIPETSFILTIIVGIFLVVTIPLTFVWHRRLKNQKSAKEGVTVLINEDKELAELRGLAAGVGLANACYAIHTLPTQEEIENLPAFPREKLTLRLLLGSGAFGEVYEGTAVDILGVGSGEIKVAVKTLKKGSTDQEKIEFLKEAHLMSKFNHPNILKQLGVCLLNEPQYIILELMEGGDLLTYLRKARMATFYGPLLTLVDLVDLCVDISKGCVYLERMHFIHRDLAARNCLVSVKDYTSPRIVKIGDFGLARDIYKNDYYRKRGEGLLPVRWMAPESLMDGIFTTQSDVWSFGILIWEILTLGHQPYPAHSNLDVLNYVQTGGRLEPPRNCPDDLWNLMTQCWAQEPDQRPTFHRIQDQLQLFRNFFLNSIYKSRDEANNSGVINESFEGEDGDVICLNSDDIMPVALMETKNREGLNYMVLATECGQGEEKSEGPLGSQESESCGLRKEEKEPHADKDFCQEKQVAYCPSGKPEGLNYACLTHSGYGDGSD
Cell division cycle 7-related protein kinase, sequence (O00311 whole entry): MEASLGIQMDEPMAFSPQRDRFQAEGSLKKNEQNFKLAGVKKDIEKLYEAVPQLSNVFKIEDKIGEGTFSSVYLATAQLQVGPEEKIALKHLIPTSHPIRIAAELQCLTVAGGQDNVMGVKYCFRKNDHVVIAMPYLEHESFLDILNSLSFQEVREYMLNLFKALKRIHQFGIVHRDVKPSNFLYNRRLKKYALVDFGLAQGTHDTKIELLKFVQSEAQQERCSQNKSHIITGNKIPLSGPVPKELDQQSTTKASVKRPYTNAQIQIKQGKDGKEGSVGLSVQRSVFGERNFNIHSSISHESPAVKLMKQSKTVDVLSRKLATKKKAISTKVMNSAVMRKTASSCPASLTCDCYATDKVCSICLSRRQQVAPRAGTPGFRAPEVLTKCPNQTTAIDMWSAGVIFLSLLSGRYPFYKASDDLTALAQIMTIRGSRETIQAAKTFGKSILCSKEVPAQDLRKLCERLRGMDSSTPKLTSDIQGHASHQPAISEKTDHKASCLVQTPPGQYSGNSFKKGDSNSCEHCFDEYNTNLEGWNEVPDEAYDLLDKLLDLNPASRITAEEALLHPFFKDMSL

With CCn1nc(/C=C/c2ccccc2)nc2c(=O)n(C)c(=O)nc1-2 the IC50 [1] was 2240 nM (active) and the EC50 [2] was 630 nM (active).

For COc1cc2c(cc1Nc1nc(Nc3cccc(F)c3C(N)=O)c3cc[nH]c3n1)N(C(=O)CN(C)C)CC2, the Ki [3] was 2.51 nM (active) and the Ki [4] was 631 nM (active).

With CC(C)c1ccc(-c2nnn(CCC(=O)O)n2)cc1 the IC50 [5] was 9320 nM (active).
